Experiment [1] has as its system E. coli O-157. Put plainly: Viable cells in the cecum of mice infected with E. coli O-157. Format: in vivo, E. coli FP1962 in DBA/2 mice. The following applies: for Number of cells in cecum, individual mouse / Number of cells in cecum, mean: day 6; for Number of cells in cecum, individual mouse: DBA/2 mice; for Number of cells in cecum, mean: control mean 3.4 × 10^7.

The subject of experiment [2] is VT1. Put plainly: Amount of VT1 in cecum of mice infected with E. coli O-157 (VTEC-RPLA). Conditions: day 6. Format: in vivo, E. coli FP1962 in DBA/2 mice.
For experiment [3], the system named is VT2. Put plainly: Amount of VT2 in cecum of mice infected with E. coli O-157 (VTEC-RPLA). Conditions: day 6. Format: in vivo, E. coli FP1962 in DBA/2 mice.
The subject of experiment [4] is E. coli O-157. Put plainly: Death of mice infected with E. coli O-157. Format: in vivo, E. coli FP1962 in DBA/2 mice. Conditions: 10 mg/kg/dose orally twice a day for 4 days.
The test system of a further experiment is E. coli O-157:H7. Put plainly: Minimum inhibitory concentration (MIC) against E. coli O-157:H7 strains by agar dilution method. Format: cell-based. Conditions: for MIC50 / MIC90: Escherichia coli, 18 h, 20 strains. On the technique in general: In agar dilution, organisms are placed on agar that contains the substance at set levels.
Experiment [5] deals with VT1. Format: cell-based, E. coli O-157:H7. The following applies: 3h; for VT1 released: control 0h <2, control 3h 2; for VT1 released, ratio to control at 0h: control 3h ratio 2; for VT1 intracellular, ratio to control at 0h: control 3h ratio 32.
Experiment [6] concerns VT2. Format: cell-based, E. coli O-157:H7. Conditions: 3h; for VT2 released: control 0h <2, control 3h 8; for VT2 intracellular: control 0h <2, control 3h 16; for VT2 released, ratio to control at 0h: control 3h ratio 8; for VT2 intracellular, ratio to control at 0h: control 3h ratio 16.
The next experiment has as its system Verotoxins (VT1 and VT2). Format: cell-based, E. coli O-157:H7. Conditions: concentration greater than MIC; compared with untreated E. coli.
A further experiment has as its system verotoxins. Set-up: species or system E. coli FP1962 in DBA/2 mice. Conditions: mouse, in vivo, po.
Where [7] appears, read: 10 mg/kg/dose orally twice a day for 4 days.
Where [8] appears, read: 32 mg/kg/dose orally twice a day for 4 days.

For orientation: MIC50 means the lowest concentration that inhibits either 50% of growth or 50% of the strains tested, depending on the study. A higher MIC50 goes with weaker potency. Broadly, the MIC90 is an inhibitory concentration at the 90% level, which refers to growth in some studies and to a panel of isolates in others. Higher therefore signals weaker potency.

Values after ≈ are worked out from the molar mass of the structure shown. Values joined by “and” are separate entries in the source; they are usually repeats but may differ in a detail not shown here. Identical values can stand only once. Like-named read-outs stand apart in the source and are kept apart here.

Turning to `CCn1cc(C(=O)O)c(=O)c2cc(F)c(N3CCNCC3)cc21` [NFLX, norfloxacin], in the experiment with E. coli O-157 [1] (setting [7]), the “Number of cells in cecum, individual mouse” value (“Number … individual mouse” below) is listed as 6.9 × 10^5 cfu/site and the “Number of cells in cecum, mean” value is 6.9 × 10^5 cfu/site. In addition, the “Amount of VT1 in cecum, individual mouse” value in the experiment on VT1 [2] (setting [7]) is given as 2 titer. Also, in the experiment on VT2 [3] (setting [7]), the “Amount of VT2 in cecum, individual mouse” value stood at 16 titer. In the experiment on E. coli O-157 [4], the “death, individual mouse” value was “died” and the “tested mice that died due to increased verotoxins” value is given as “Five of 6”.

Take `CC1(C)S[C@@H]2[C@H](NC(=O)[C@H](N)c3ccc(O)cc3)C(=O)N2[C@H]1C(=O)O` [AMX, Amoxicillin]: in the experiment with E. coli O-157:H7, the “MIC distribution: number of strains with MIC 1.56 μg/ml” value worked out at 14 strains and the “MIC distribution: number of strains with MIC 6.25 μg/ml” value is 2 strains. Besides, in the experiment on E. coli O-157:H7 (aerobic), the MIC50 turned out to be 3.13 µg/mL (≈ 8.57 µM) and the MIC90 is 6.25 µg/mL (≈ 17.1 µM). In addition, in the experiment on E. coli O-157:H7 (anaerobic), the MIC50 was 1.56 µg/mL (≈ 4.27 µM) and the MIC90 amounted to 3.13 µg/mL (≈ 8.57 µM). Further, the “MIC distribution: number of strains with MIC >100 μg/ml” value against E. coli O-157:H7 (aerobic, 20 strains tested) was found to be 1 strains. The “MIC distribution: number of strains with MIC >100 μg/ml” value with E. coli O-157:H7 (anaerobic, 20 strains tested) came out at 1 strains. The VT1 intracellular in the experiment with VT1 [5] (10 μg/ml, control 0h 2, control 3h 64) is given as 64 maximum dilution times. Further, in the experiment on VT1 [5] (10 μg/ml), the VT1 released is reported as no less than 256 maximum dilution times; the “VT1 released, ratio to control at 0h” value is on record as no less than 256; the “VT1 intracellular, ratio to control at 0h” value (“VT1 intracellular, ratio” for short) came out at 32. For the same molecule, in the experiment with VT2 [6] (10 μg/ml), the VT2 released was 8 maximum dilution times; the VT2 intracellular is reported as 4 maximum dilution times; the “VT2 released, ratio to control at 0h” value was found to be 8; the “VT2 intracellular, ratio to control at 0h” value (“VT2 intracellular, ratio” for short) was 4. Also, the “production and release of verotoxins” value with Verotoxins (VT1 and VT2) was “both production and release of verotoxins increased much more than those with an untreated E. coli”.

Consider `C[C@@H]1O[C@@H]1P(=O)(O)O` [FOM, fosfomycin], for which, in the experiment with E. coli O-157 [1] (setting [8]), the “Number … individual mouse” value is 7.1 × 10^5 cfu/site and 3.0 × 10^4 cfu/site and 1.2 × 10^8 cfu/site and 4.6 × 10^7 cfu/site and 9.8 × 10^6 cfu/site and 4.9 × 10^7 cfu/site; the “Number of cells in cecum, mean” value was 6.2 × 10^6 cfu/site. In addition, the “Amount of VT1 in cecum, individual mouse” value in the experiment with VT1 [2] (setting [8]) is less than 2 titer. Besides, the “Amount of VT2 in cecum, individual mouse” value in the experiment with VT2 [3] (setting [8]) was < 2 titer and 32 titer and 4 titer and 16 titer.

For `CC[C@H]1OC(=O)[C@H](C)[C@@H](O[C@H]2C[C@@](C)(OC)[C@@H](O)[C@H](C)O2)[C@H](C)[C@@H](O[C@@H]2O[C@H](C)C[C@H](N(C)C)[C@H]2O)[C@](C)(OC)C[C@@H](C)C(=O)[C@H](C)[C@@H](O)[C@]1(C)O` [CAM, clathromycin], in the experiment with E. coli O-157 [1] (setting [8]), the “Number … individual mouse” value was 2.4 × 10^7 cfu/site and 7.9 × 10^7 cfu/site and 1.0 × 10^8 cfu/site and 1.3 × 10^8 cfu/site and 7.0 × 10^6 cfu/site and 4.1 × 10^8 cfu/site; the “Number of cells in cecum, mean” value is 6.5 × 10^7 cfu/site. Besides, the “Amount of VT1 in cecum, individual mouse” value with VT1 [2] (setting [8]) was 2 titer and 4 titer. In addition, the “Amount of VT2 in cecum, individual mouse” value with VT2 [3] (setting [8]) was 2 titer and 4 titer and < 2 titer and 8 titer.

`C=C1CCO[C@]2([C@@H](O)[C@@](C)(O)CO)NC(=O)[C@@]1(O)NC2=O` [BCM, Bicozamycin]: in the experiment with E. coli O-157:H7 (aerobic), the MIC50 is 25 µg/mL (≈ 82.7 µM) and the MIC90 amounted to 25 µg/mL (≈ 82.7 µM). Besides, in the experiment on E. coli O-157:H7 (anaerobic), the MIC50 turned out to be 12.5 µg/mL (≈ 41.4 µM) and the MIC90 was found to be 25 µg/mL (≈ 82.7 µM). The “MIC distribution: number of strains with MIC 25 μg/ml” value against E. coli O-157:H7 (aerobic, 20 strains tested) is reported as 20 strains. In addition, the “MIC distribution: number of strains with MIC 12.5 μg/ml” value against E. coli O-157:H7 (anaerobic, 20 strains tested, MIC 12.5 μg/ml) is on record as 15 strains. The “MIC distribution: number of strains with MIC 25 μg/ml” value against E. coli O-157:H7 (anaerobic, 20 strains tested) turned out to be 5 strains. Also, in the experiment on VT1 [5] (10 μg/ml), the VT1 released was 8 maximum dilution times; the “VT1 released, ratio to control at 0h” value worked out at 8; the “VT1 intracellular, ratio” value was 16. Also, in the experiment with VT1 [5] (25 μg/ml), the VT1 released is 8 maximum dilution times; the “VT1 released, ratio to control at 0h” value is on record as 8; the “VT1 intracellular, ratio” value stood at 1. For the same molecule, in the experiment with VT1 [5] (100 μg/ml), the VT1 released was determined as 8 maximum dilution times; the “VT1 released, ratio to control at 0h” value stood at 8; the “VT1 intracellular, ratio” value was 1. In the experiment with VT2 [6] (10 μg/ml), the VT2 released came to 2 maximum dilution times; the VT2 intracellular is reported as 4 maximum dilution times; the “VT2 released, ratio to control at 0h” value is reported as 2; the “VT2 intracellular, ratio” value was determined as 4. Further, in the experiment with VT2 [6] (25 μg/ml), the VT2 released is less than 2 maximum dilution times; the VT2 intracellular is less than 2 maximum dilution times; the “VT2 released, ratio to control at 0h” value is reported as 1; the “VT2 intracellular, ratio” value is recorded as 1. In the experiment on VT2 [6] (100 μg/ml), the VT2 released is given as less than 2 maximum dilution times; the VT2 intracellular is reported as less than 2 maximum dilution times; the “VT2 released, ratio to control at 0h” value is 1; the “VT2 intracellular, ratio” value was 1. Further, the “production and release of verotoxins” value with Verotoxins (VT1 and VT2) was “increases in production and release of verotoxins were dramatically suppressed”. In the experiment with E. coli O-157 [1] (setting [8]), the “Number … individual mouse” value is 4.5 × 10^3 cfu/site and 1.0 × 10^2 cfu/site and 8.5 × 10^3 cfu/site and 3.5 × 10^3 cfu/site and 1.0 × 10^5 cfu/site; the “Number of cells in cecum, mean” value is reported as 2.2 × 10^3 cfu/site. Moreover, in the experiment with E. coli O-157 [1] (infected mice, 32 mg/kg/dose orally), the “antimicrobial activity against VTEC” value is “showed an antimicrobial activity against VTEC”. Moreover, the “Amount of VT1 in cecum, individual mouse” value with VT1 [2] (setting [8]) was less than 2 titer. In the experiment on VT2 [3] (setting [8]), the “Amount of VT2 in cecum, individual mouse” value was < 2 titer and 2 titer. Also, the “production and release of verotoxins” value with verotoxins was “suppressed the production and release of verotoxins”.

(Values after patent US6328989A, “Use of bicozamycin for the manufacture of a medicament for treating infections with enterohemorrhagic e. coli” (Fujisawa Pharmaceutical Co., Ltd., priority 1997, dated 2001).)
